From the NIST ThermoML archive (doi:10.1021/je7001946)

Key:
[1] = mn = molality of the nth substance listed, in mol/kg; conditions: 101.3 kPa, Liquid; for speed of sound: Pulse-echo method
[2] = 101.3 kPa, Liquid

CC#N [acetonitrile] + [Cl][Co][Cl]
[1], m2 = 0
Conditions	mass density [kg/m3]
288.15 K	787.297
293.15 K	781.919
298.15 K	776.518
303.15 K	771.09
308.15 K	765.631
313.15 K	760.142
323.15 K	749.056

[Cl][Co][Cl] [cobalt chloride] + CC#N
[1]
Conditions	mass density, 288.15 K [kg/m3]	mass density, 293.15 K [kg/m3]	mass density, 298.15 K [kg/m3]	mass density, 303.15 K [kg/m3]	mass density, 308.15 K [kg/m3]	mass density, 313.15 K [kg/m3]	mass density, 323.15 K [kg/m3]	speed of sound, 298.15 K [m/s]
m1 = 0.08764	795.418	790.014	784.59	779.137	773.654	768.139	756.997	1279.8
m1 = 0.1171	798.185	792.779	787.348	781.889	776.401	770.881	759.736	1280.5
m1 = 0.146	800.89	795.475	790.038	784.571	779.078	773.545	762.939	1281.1
m1 = 0.1743	803.599	798.184	792.742	787.274	781.773	776.24	765.073	1281.8
m1 = 0.2031	806.356	800.934	795.487	790.011	784.51	778.973	767.796	1282.5
m1 = 0.2318	809.121	803.697	798.244	792.763	787.256	781.714	770.528	1283.2
m1 = 0.26	811.836	806.407	800.953	795.467	789.954	784.407	773.206	1284
m1 = 0.2873	814.493	809.058	803.595	798.109	792.59	787.039	775.843	1284.8

CC#N [acetonitrile] + [Br-].[Br-].[Mn+2]
[1], m2 = 0
Conditions	mass density [kg/m3]
288.15 K	787.299
293.15 K	781.923
298.15 K	776.525
303.15 K	771.097
308.15 K	765.64
313.15 K	760.148
323.15 K	749.055

CC#N [acetonitrile] + [Br][Co][Br]
[1], m2 = 0
Conditions	mass density [kg/m3]	speed of sound [m/s]
288.15 K	787.315	–
293.15 K	781.939	–
298.15 K	776.538	1278.3
303.15 K	771.112	–
308.15 K	765.653	–
313.15 K	760.164	–
323.15 K	749.073	–

CC#N [acetonitrile]
[2]
Conditions	mass density
288.15 K	787.303 kg/m3 [middle of 5 runs]
293.15 K	781.923 kg/m3 [middle of 5 runs]
298.15 K	776.525 kg/m3 [middle of 5 runs]
303.15 K	771.097 kg/m3 [middle of 5 runs]
308.15 K	765.64 kg/m3 [middle of 5 runs]
313.15 K	760.151 kg/m3 [middle of 5 runs]
323.15 K	749.07 kg/m3 [middle of 5 runs]

Conditions	speed of sound [m/s]
[2], 298.15 K, Pulse-echo method	1278.3

CC#N [acetonitrile] + [Cl-].[Cl-].[Zn+2]
[1], m2 = 0
Conditions	mass density [kg/m3]
288.15 K	787.303
293.15 K	781.922
298.15 K	776.522
303.15 K	771.095
308.15 K	765.637
313.15 K	760.151
323.15 K	749.071

CC#N [acetonitrile] + [Br-].[Br-].[Zn+2]
[1], m2 = 0
Conditions	mass density [kg/m3]
288.15 K	787.313
293.15 K	781.935
298.15 K	776.535
303.15 K	771.106
308.15 K	765.65
313.15 K	760.159
323.15 K	749.07

[Cl-].[Cl-].[Zn+2] [zinc chloride] + CC#N
mass density [kg/m3], [1]
Conditions	m1 = 0.05257	m1 = 0.06571	m1 = 0.07576	m1 = 0.08438	m1 = 0.1077	m1 = 0.128	m1 = 0.1487	m1 = 0.1684	m1 = 0.1902	m1 = 0.2114
288.15 K	791.935	793.095	794	794.764	796.85	798.676	800.536	802.335	804.302	806.244
293.15 K	786.551	787.712	788.618	789.38	791.469	793.289	795.155	796.955	798.922	800.862
298.15 K	781.15	782.313	783.217	783.985	786.068	787.887	789.746	791.541	793.519	795.456
303.15 K	775.724	776.886	777.79	778.553	780.64	782.455	784.317	786.115	788.091	790.032
308.15 K	770.266	771.431	772.33	773.096	775.184	777.003	778.858	780.661	782.635	784.575
313.15 K	764.781	765.94	766.841	767.607	769.697	771.516	773.372	775.165	777.148	779.089
323.15 K	753.694	754.859	755.76	756.526	758.618	760.435	762.295	764.103	766.072	768.014
